# From patent US8178087B2, “Process of production of bacteriophage compositions and methods in phage therapy field” (priority 2006, dated 2012)
# Legend:
# [1] = test system: AS19 bacterial strain; experiment: different antibiotic test disks, T4-type phages on AS19 bacterial strain; type: cell-based, E. coli; conditions: T4-like phages
# [2] = test system: AS19 bacterial strain; experiment: morphology of T4 infected AS19 bacteria with or without CTX by optical microscopy; type: cell-based, E. coli; conditions: CTX 0.003 μg/ml, several hours after infection, FIG. 4
# Text: The morphology of the bacteria in culture has been observed by optical microscopy at different times after infection.
# [3] = test system: Escherichia. coli bacterial strain P400; experiment: T4 plaque size with CTX disk on bacterial strain P400; type: cell-based; conditions: bacterial strain P400, bacteriophage T4, CTX test disk
# [4] = test system: Escherichia. coli bacterial strain MC1061; experiment: T4 plaque size with CTX disk on bacterial strain MC1061; conditions: bacterial strain MC1061, bacteriophage T4, CTX test disk
# [5] = test system: AS19 bacterial strain; experiment: growth of AS19 bacterial strain in LB liquid medium with low dose CTX (OD600, CFU/ml); type: cell-based, E. coli; conditions: CTX 0.003 μg/ml
# Experimental: Growth was measured either by OD600 (A) or CFU/ml (B). The times (T) is indicated in minutes after addition of CTX to the growth medium.
# To examine the effect of low doses of the β-lactam antibiotic CTX on a culture of the AS19 bacterial strain, this bacterial strain was grown in LB liquid medium with CTX at a dosage level (0.003 μg/ml) that produces a substantial effect synergistic when infected with T4 phage.
# [6] = test system: Escherichia. coli bacterial strain BE; experiment: T4 plaque size with CTX disk on bacterial strain BE; type: cell-based; design: key to the marks not given beside the values; conditions: bacteriophage T4, CTX test disk
# [7] = test system: Escherichia. coli bacterial strain S/6; experiment: T4 plaque size with CTX disk on bacterial strain S/6; design: key to the marks not given beside the values; conditions: bacterial strain S/6, bacteriophage T4, CTX test disk
# [8] = test system: Escherichia. coli bacterial strain AS19; experiment: T4 plaque size with CTX disk on bacterial strain AS19; type: cell-based; design: key to the marks not given beside the values; conditions: bacterial strain AS19, bacteriophage T4, CTX test disk
# [9] = test system: Escherichia. coli bacterial strain C600; experiment: T4 plaque size with CTX disk on bacterial strain C600; conditions: bacterial strain C600, bacteriophage T4, CTX test disk
# [10] = test system: non-infected E. coli MFP; experiment: antibiotic sensitivity test disks on non-infected MFP strain; type: cell-based, Escherichia coli; conditions: FIG. 1
# [11] = test system: uropathogenic Escherichia coli strain; experiment: antibiotic sensitivity test disks on Petri plate inoculated with child's urine (phage plaques around disks); type: cell-based; conditions: plate inoculated with dilution of child's urine; strain infected by bacteriophages
# [12] = test system: φmF-infected E. coli MFP; experiment: φmF plaque size around antibiotic disks on MFP strain; type: cell-based, Escherichia coli
# Text: A culture of non-infected MFP strain has been grown overnight in LB liquid medium, and then a dilution of the culture either alone or mixed with φmF phage have been inoculated on a series of nutrient Petri plate where different antibiotic sensitivity test disks were placed on the surface.
# The entire surface of the Petri plate was inoculated with a mixture of both the MFP bacterial host and with the phage φmF that could infect it (see FIG. 1, φmF-infected E. coli MFP).
molecule,measurement,setting,value
NCC[C@H](O)C(=O)N[C@@H]1C[C@H](N)[C@@H](O[C@H]2O[C@H](CN)[C@@H](O)[C@H](O)[C@H]2O)[C@H](O)[C@H]1O[C@H]1O[C@H](CO)[C@@H](O)[C@H](N)[C@H]1O [Amikacin],stimulation of T4 phage production (synergistic effect on phage T4 growth),[1],failed to stimulate T4 phage production
Gentamicin,stimulation of T4 phage production (synergistic effect on phage T4 growth),[1],failed to stimulate T4 phage production
"CO/N=C(\C(=O)N[C@@H]1C(=O)N2C(C(=O)O)=C(COC(C)=O)CS[C@H]12)c1csc(N)n1 [CTX, Cefotaxime]",cell size of the T4 infected bacteria,[2],increases in volume considerably producing long fat filaments
same,synergy (size of phage plaques) with CTX (Cefotaxime),[3],+
same,synergy (size of phage plaques) with CTX (Cefotaxime),[4],+
same,cell viability as assayed by colony forming units,[5]; LB liquid medium,little effected
same,cell division,"[5]; LB liquid medium, FIGS. 3A and 3B",inhibited
same,optical density of the culture treated with the drug,[5]; after the addition of the drug,continues to increase for at least two hours
same,synergy (size of phage plaques) with CTX (Cefotaxime),[6],+++
same,synergy (size of phage plaques) with CTX (Cefotaxime),[7],++
same,synergy (size of phage plaques) with CTX (Cefotaxime),[8],+++
same,synergy (size of phage plaques) with CTX (Cefotaxime),[9],+
CC1(C)S[C@@H]2[C@H](NC(=O)[C@H](N)c3ccc(O)cc3)C(=O)N2[C@H]1C(=O)O [Amoxicillin],sensitivity or resistance of the MFP bacterial strain to antibiotic (zone of growth inhibition around disks),[10],resistance
C[C@@H]1O[C@@H]1P(=O)(O)O [Fosfomycin],stimulation of T4 phage production (synergistic effect on phage T4 growth),[1],failed to stimulate T4 phage production
COc1cc(Cc2cnc(N)nc2N)cc(OC)c1OC [Trimethoprim],stimulation of T4 phage production (synergistic effect on phage T4 growth),[1],failed to stimulate T4 phage production
CO[C@H]1/C=C/O[C@@]2(C)Oc3c(C)c(O)c4c(O)c(c(/C=N/N5CCN(C)CC5)c(O)c4c3C2=O)NC(=O)/C(C)=C\C=C\[C@H](C)[C@H](O)[C@@H](C)[C@@H](O)[C@@H](C)[C@H](OC(C)=O)[C@@H]1C [Rifampin],stimulation of T4 phage production (synergistic effect on phage T4 growth),[1],failed to stimulate T4 phage production
Colistin,stimulation of T4 phage production (synergistic effect on phage T4 growth),[1],failed to stimulate T4 phage production
O=C(N[C@H](CO)[C@H](O)c1ccc([N+](=O)[O-])cc1)C(Cl)Cl [Choramphenicol],stimulation of T4 phage production (synergistic effect on phage T4 growth),[1],failed to stimulate T4 phage production
"CCn1cc(C(=O)O)c(=O)c2ccc(C)nc21 [Nalidix Acid, Nalidixic acid]",stimulation of T4 phage production (synergistic effect on phage T4 growth),[1],causes a synergistic effect
"C[C@H]1[C@H](NC(=O)/C(=N\OC(C)(C)C(=O)O)c2csc(N)n2)C(=O)N1S(=O)(=O)O [ATM, aztreonam]",size of phage plaques in the zone of non lethal concentrations of antibiotic that encircled antibiotic disks,[11],much larger
same,sensitivity or resistance of the MFP bacterial strain to antibiotic (zone of growth inhibition around disks),[10],sensitivity
same,stimulation of phage φMFP growth by antibiotic disks,"[12]; FIG. 1, disks marked with +",good stimulation
same,size of φmF plaques in the zone of non lethal antibiotic concentration around disks,"[12]; MFP host mixed with phage φmF, FIG. 1",significantly larger size
